Literature values, collected in patent publication US11559486B2, “Ready-to-use formulation for Vincristine Sulfate Liposome Injection” (Spectrum Pharmaceuticals, Inc., priority 2015, dated 2023).

Conditions: 0.45% aqueous sodium chloride and Ringers admixtures at 25° C. to 37° C.

Compound	degradation in chloride-containing admixtures
CC[C@]1(O)C[C@H]2CN(CCc3c([nH]c4ccccc34)[C@@](C(=O)OC)(c3cc4c(cc3OC)N(C=O)[C@H]3[C@@](O)(C(=O)OC)[C@H](OC(C)=O)[C@]5(CC)C=CCN6CC[C@]43[C@@H]65)C2)C1 [vincristine, (3aR,3a^1R,4R,5S,5aR,10bR)-methyl-4-acetoxy-3a-ethyl-9-((5S,7S,9S)-5-ethyl-5-hydroxy-9-(methoxycarbonyl)-2,4,5,6,7,8,9,10-octahydro-1H-3,7-methano[1]azacycloundecino[5,4-b]indol-9-yl)-6-formyl-5-hydroxy-8-methoxy-3a,3a1,4,5,5a,6,11,12-octahydro-1H-indolizino[8,1-cd]carbazole-5-carboxylate]	degrade rapidly
COc1cccc2c1C(=O)c1c(O)c3c(c(O)c1C2=O)C[C@@](O)(C(=O)CO)C[C@@H]3O[C@H]1C[C@H](N)[C@H](O)[C@H](C)O1 [Doxorubicin]	degrade rapidly
